This experiment deals with increase in intravesical pressure induced by carbachol in anesthetized dog. The experiment is described as follows: Effect on the increase in intravesical pressure induced by carbachol in anesthetized dog. Format: in vivo. The note with it: 0.032 mg/kg intravenously, 30 minutes before carbachol (1.8 μg/kg); female Beagle dogs under halothane anesthesia. The method, then:
Effect on the increase in intravesical pressure induced by carbachol in anesthetized dog
Female Beagle dogs weighing 8.0-15.0 kg were fasted for 24 hours and maintained under halothane anesthesia. A 12F Foley catheter was lubricated with water soluble jelly, inserted into the urethral orifice and advanced approximately 10 cm until the balloon tip was placed well inside the bladder. The balloon was then inflated with 5 ml of room air and catheter slowly withdrawn just part the first resistance that is felt at the bladder neck. Urine was completely drained out through the catheter, and 30 ml of biological saline was infused. The catheter was connected to pressure transducer, and intravesical pressure (IVP) was continuously recorded. The test compound was administered intravenously at 30 minutes before the administration of carbachol (1.8 μg/kg). Percent inhibition of IVP increase by test compound was calculated by dividing IVPa (IVP increase induced by carbachol after test compound administration) by IVPb (IVP increase induced by carbachol just before test compound administration).
Regarding `COc1cc(-c2ccc(C[C@@H](C)NC[C@H](O)c3ccccc3)cc2)ccc1C(=O)O.Cl` [Test Compound (1), 4′-[(2R)-2-[[(2R)-2-Phenyl-2-hydroxyethyl]amino]-propyl]-3-methoxy-1,1′-biphenyl-4-carboxylic acid hydrochloride], the “Percent inhibition of IVP increase” value turned out to be 93%.
Turning to `Cc1c(C(=O)O)ccc(-c2ccc(CCNC[C@H](O)c3cccc(Cl)c3)cc2)c1C.Cl` [Test Compound (2), 4′-[2-[[(2R)-2-(3-Chlorophenyl)-2-hydroxyethyl]amino]-ethyl]-2,3-dimethyl-1,1′-biphenyl-4-carboxylic acid hydrochloride], the “Percent inhibition of IVP increase” value stood at 91%.
With `Cc1cc(C(=O)O)ccc1-c1ccc(CCNC[C@H](O)c2cccnc2)cc1.Cl.Cl` [Test Compound (3), 4′-[2-[[(2R)-2-Hydroxy-2-(3-pyridyl)ethyl]amino]ethyl]-2-methyl-1,1′-biphenyl-4-carboxylic acid dihydrochloride], the “Percent inhibition of IVP increase” value is on record as 86%.
As to `COc1cc(-c2ccc(C[C@@H](C)NC[C@H](O)c3cccnc3)cc2)ccc1C(=O)O.Cl.Cl` [Test Compound (4), 4′-[(2R)-2-[[(2R)-2-Hydroxy-2-(3-pyridyl)ethyl]amino]-propyl]-3-methoxy-1,1′-biphenyl-4-carboxylic acid dihydrochloride], the “Percent inhibition of IVP increase” value came out at 96%.

The record behind these values is US7629366B2, “Aminoalcohol derivatives” (Fujisawa Pharmaceutical Co., Ltd., priority 2002, dated 2009).
